Earlier results as cited in patent publication US5945412A, “Methods and compositions for preventing and treating bone loss” (Merck & Co., Inc., priority 1997, dated 1999).

Test system: human type 2 enzyme (5α-reductase)
Conditions: background statement

inhibition of the human type 2 enzyme (in words): potent inhibitor
SMILES: CC(C)(C)NC(=O)[C@H]1CC[C@H]2[C@@H]3CC[C@H]4NC(=O)C=C[C@]4(C)[C@H]3CC[C@]12C [Finasteride, 17β-(N-tert-butylcarbamoyl)-3-oxo-4-aza-5α-androst-1-en-3-one]
